Patent US6147100A, “Pyrrolidine derivatives having phospholipase A2 inhibitory activity” (Shionogi & Co., Ltd., priority 1997, dated 2000)
pIC50: −log10 of the molar value.

Assays:
[1] = target: T1, cPLA2 (Homo sapiens, UniProt P47712); assay: cPLA2 Inhibitory Activity; type: biochemical; conditions: 1-palmitoyl-2-[14C]-arachidonoyl-sn-glycero-3-phosphocholine 2.5 μM, sn-1,2-dioleoylglycerol 1.25 μM; pH 7.5, 15 min at 37° C.
T1 sequence (P47712 1-749): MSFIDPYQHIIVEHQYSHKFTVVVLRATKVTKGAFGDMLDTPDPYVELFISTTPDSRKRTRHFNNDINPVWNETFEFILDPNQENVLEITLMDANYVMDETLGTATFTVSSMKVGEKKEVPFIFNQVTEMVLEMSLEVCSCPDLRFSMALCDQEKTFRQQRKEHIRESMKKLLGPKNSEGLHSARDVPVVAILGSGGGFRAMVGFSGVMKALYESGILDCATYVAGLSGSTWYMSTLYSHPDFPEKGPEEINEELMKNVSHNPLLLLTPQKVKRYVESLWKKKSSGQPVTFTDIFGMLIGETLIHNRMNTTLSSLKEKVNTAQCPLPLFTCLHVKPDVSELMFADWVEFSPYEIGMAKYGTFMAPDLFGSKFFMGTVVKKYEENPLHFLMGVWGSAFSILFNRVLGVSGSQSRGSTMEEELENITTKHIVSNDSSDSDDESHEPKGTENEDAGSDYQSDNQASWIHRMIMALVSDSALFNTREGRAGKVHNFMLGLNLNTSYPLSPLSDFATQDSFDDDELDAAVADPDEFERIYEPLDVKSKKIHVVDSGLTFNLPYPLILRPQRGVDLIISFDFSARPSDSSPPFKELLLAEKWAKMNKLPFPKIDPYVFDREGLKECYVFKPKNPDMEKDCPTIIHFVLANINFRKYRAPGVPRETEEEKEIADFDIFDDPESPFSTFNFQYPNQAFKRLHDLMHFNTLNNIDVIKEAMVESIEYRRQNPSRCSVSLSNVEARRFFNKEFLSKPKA
Protocol: Test Example 1 cPLA2 Inhibitory Activity The compounds of the present invention were tested for the cPLA2 inhibitory activity according to the method disclosed in […]. Roberts, […], and J. E. Putnam, J. Biol. Chem., 1991, 266, 5268-5272 as outlined below. […] The reaction mixture includes 50 mM HEPES buffer (pH 7.5), 1 mM calcium chloride, 150 mM sodium chloride, 0.1 mg/ml bovine serum albumin, and 1.7 mM dithiothreitol. To the reaction mixture was added the compound of the present invention and the substrate solution. The reaction was allowed to start by adding an enzyme and continued for 15 min at 37° C. The fatty acids released by the reaction were extracted by the method described in V. P. Dole, and H. Meinertz, J. Biol. Chem., 1960, 235, 2595-2599 and its radiation activity was measured on a liquid scintillation counter. Control was obtained by conducting the experiment in the same manner except that a compound of the present invention was not added.

[2] = test system: production of prostaglandin E2 by human fibroblasts; assay: Inhibition of Production of Prostaglandin E2 in Human Fibroblasts (IL-1 stimulation); type: cell-based; conditions: Fibroblast; human fibroblasts under stimulation with IL-1
Protocol: Test Example 2 Inhibition of Production of Prostaglandin E2 in Human Fibroblasts.
In order to examine the availability of the composition for inhibiting cytosolic phospholipase A2 (cPLA2) on the cells, the compounds of the present invention were tested for the effect on the production of prostaglandin E2 by human fibroblasts under the stimulation with IL-1 according to the method of J. M. Dayer et al (CACHECTIN/TUMOR NECROSIS FACTOR STIMULATES COLLAGENASE AND PROSTAGLANDIN E2 PRODUCTION BY HUMAN SYNOVIAL CELLS AND DERMAL FIBROBLASTS; J. M. Dayer, B, Beutler and A, Cerami, J. EXP. Med., 1985, 162, 2163-2168.).

SMILES | pIC50 [1] | pIC50 [2]
Cc1ccc(C(=O)c2ccccc2C(=O)N2C[C@H](OCc3ccccc3-c3ccccc3)C[C@H]2CNC(=O)c2ccc(/C=C3\SC(=O)NC3=O)cc2)cc1 [Compound A-21] | 6.37 | 6.64
O=C1NC(=O)/C(=C/c2ccc(C=C[C@@H]3C[C@@H](OCc4ccccc4-c4ccccc4)CN3C(=O)c3ccccc3C(=O)c3ccc(F)cc3)cc2)S1 [Compound E-4] | 5.96 | 5.92
O=C1NC(=O)/C(=C/c2ccc(C(=O)NC[C@@H]3C[C@@H](Oc4ccccc4-c4ccc5c(c4)OCO5)CN3C(=O)c3ccccc3C(=O)c3ccc(F)cc3)cc2)S1 [Compound A-101] | 7.21 | 6.46
O=C1NC(=O)/C(=C/c2ccc(C(=O)NC[C@@H]3C[C@@H](OCc4ccccc4-c4ccc(F)cc4)CN3C(=O)c3ccccc3C(=O)c3ccc(F)cc3)cc2)S1 [Compound A-30] | 7.01 | 6.34
O=C1NC(=O)/C(=C/c2ccc(C(=O)NC[C@@H]3C[C@@H](COc4ccccc4-c4ccccc4)CN3C(=O)c3ccccc3C(=O)c3ccc(F)cc3)cc2)S1 [Compound O-2] | 7.24 | 6.64
O=C1NC(=O)/C(=C/c2ccc(C(=O)NC[C@@H]3C[C@@H](N(CC4CC4)C(c4ccccc4)c4ccccc4)CN3C(=O)c3ccccc3C(=O)c3ccc(F)cc3)cc2)S1 [Compound M-14] | 7.57 | 5.85
O=C1NC(=O)/C(=C/c2ccc(C(=O)NC[C@@H]3C[C@@H](OCc4ccccc4-c4ccccc4)CN3C(=O)c3ccccc3C(=O)c3ccoc3)cc2)S1 [Compound A-17] | 5.80 | 6.15
O=C1NC(=S)S/C1=C\c1ccc(NC(=O)[C@@H]2C[C@@H](OCc3ccccc3-c3ccccc3)CN2C(=O)c2ccccc2C(=O)c2ccc(F)cc2)cc1 [Compound B-2] | 7.08 | 5.40
O=C1NC(=O)/C(=C/c2ccc(C(=O)NC[C@@H]3C[C@@H](OCc4ccccc4-c4ccc5ccccc5c4)CN3C(=O)c3ccccc3C(=O)c3ccc(F)cc3)cc2)S1 [Compound A-36] | 7.32 | 6.74
O=C1NC(=O)/C(=C/c2ccc(C(=O)NC[C@H]3C[C@H](SCc4ccccc4-c4ccccc4)CN3C(=O)c3ccccc3C(=O)c3ccc(F)cc3)cc2)S1 [Compound Q-4] | 5.73 | 6.02
CN(C[C@@H]1C[C@@H](OCc2ccccc2-c2ccccc2)CN1C(=O)c1ccccc1C(=O)c1ccc(F)cc1)C(=O)c1ccc(/C=C2\SC(=O)NC2=O)cc1 [Compound G-1] | 6.11 | 6.01
O=C1NC(=O)/C(=C/c2ccc(C(=O)NC[C@@H]3C[C@@H](OCc4ccccc4-c4ccccc4)CN3C(=O)c3ccccc3C(=O)c3ccc(Cl)cc3)cc2)S1 [Compound A-22] | 6.52 | 6.74
O=C1NC(=O)/C(=C/c2ccc(C(=O)NC[C@@H]3C[C@@H](OCc4ccccc4-c4ccccc4)CN3C(=O)c3ncccc3C(=O)c3ccccc3)cc2)S1 [Compound A-11] | 6.07 | 6.64
O=C1NC(=O)/C(=C/c2ccc(C(=O)NC[C@@H]3C[C@@H](Oc4ccccc4-c4ccccc4-c4ccccc4)CN3C(=O)c3ccccc3C(=O)c3ccc(F)cc3)cc2)S1 [Compound A-103] | 7.24 | 6.23
O=C1NC(=O)/C(=C/c2ccc(C(=O)NC[C@@H]3C[C@@H](OCc4ccccc4-c4cccc5ccccc45)CN3C(=O)c3ccccc3C(=O)c3ccc(F)cc3)cc2)S1 [Compound A-35] | 7.40 | 6.74
CN(Cc1ccccc1-c1ccccc1)[C@@H]1C[C@@H](CNC(=O)c2ccc(/C=C3\SC(=S)NC3=O)cc2)N(C(=O)c2ccccc2C(=O)c2ccc(F)cc2)C1 [Compound M-7] | 6.57 | 5.82

SMILES | pIC50 [1] | pIC50 [2]
O=C1NC(=S)S/C1=C\c1ccc(NC(=O)[C@@H]2C[C@@H](SCc3ccccc3-c3ccccc3)CN2C(=O)c2ccccc2C(=O)c2ccc(F)cc2)cc1 [Compound J-2] | 7.64 | 6.02
O=C1NC(=S)S/C1=C\c1ccc(S(=O)(=O)NC[C@@H]2C[C@@H](SCc3ccccc3-c3ccccc3)CN2C(=O)c2ccccc2C(=O)c2ccc(F)cc2)s1 [Compound I-10] | 6.12 | 6.49
O=C1NC(=O)/C(=C/c2ccc(C(=O)NC[C@@H]3C[C@@H](OC(c4ccccc4)c4ccccc4)CN3C(=O)c3ccccc3C(=O)c3ccc(F)cc3)cc2)S1 [Compound A-29] | 7.07 | 5.66
COc1ccccc1-c1ccccc1CO[C@@H]1C[C@@H](CNC(=O)c2ccc(/C=C3\SC(=O)NC3=O)cc2)N(C(=O)c2ccccc2C(=O)c2ccc(F)cc2)C1 [Compound A-41] | 7.25 | 5.92
O=C1NC(=S)S/C1=C\c1ccc(CC[C@@H]2C[C@@H](OCc3ccccc3-c3ccccc3)CN2C(=O)c2ccccc2C(=O)c2ccc(F)cc2)cc1 [Compound E-1] | 5.96 | 5.66
COc1cccc(-c2ccccc2OC(C)C)c1O[C@@H]1C[C@@H](CNC(=O)c2ccc(/C=C3\SC(=O)NC3=O)cc2)N(C(=O)c2ccccc2C(=O)c2ccc(F)cc2)C1 [Compound A-122] | 7.46 | 5.85
O=C1NC(=O)/C(=C/c2ccc(C(=O)NC[C@@H]3C[C@@H](OCc4ccccc4-c4ccccc4)CN3C(=O)c3ccccc3C(=O)c3ccc(F)cc3)s2)S1 [Compound A-58] | 7.31 | 5.80
O=C1NC(=O)/C(=C/c2ccc(/C=C\C[C@@H]3C[C@@H](OCc4ccccc4-c4ccccc4)CN3C(=O)c3ccccc3C(=O)c3ccc(F)cc3)cc2)S1 [Compound E-12] | 6.46 | 5.24
O=C1NC(=O)/C(=C/c2ccc(C(=O)NC[C@@H]3C[C@@H](Oc4cccc5c4CCCC5)CN3C(=O)c3ccccc3C(=O)c3ccc(F)cc3)cc2)S1 [Compound A-77] | 7.00 | 6.46
O=C(C[C@@H]1C[C@@H](OCc2ccccc2-c2ccccc2)CN1C(=O)c1ccccc1C(=O)c1ccc(F)cc1)Nc1ccc(/C=C2\SC(=S)NC2=O)cc1 [Compound F-3] | 6.38 | 5.52
O=C1NC(=O)/C(=C/c2ccc(C(=O)NC[C@@H]3C[C@@H](OCc4ccc5ccccc5c4-c4ccccc4)CN3C(=O)c3ccccc3C(=O)c3ccc(F)cc3)cc2)S1 [Compound A-39] | 7.60 | 6.48
O=C1NC(=O)/C(=C/c2ccc(C(=O)NC[C@@H]3C[C@@H](OCc4ccc(F)cc4F)CN3C(=O)c3ccccc3C(=O)c3ccccc3)cc2)S1 [Compound A-3] | 5.85 | 6.05
O=C1NC(=S)S/C1=C\c1ccc(C(=O)NC[C@@H]2C[C@@H](OCc3ccccc3-c3ccccc3)CN2C(=O)c2ccccc2C(=O)c2ccc(F)cc2)s1 [Compound A-59] | 7.33 | 6.03
O=C1NC(=S)S/C1=C\c1ccc(C(=O)NC[C@@H]2C[C@@H](SCc3ccccc3-c3ccccc3)CN2C(=O)c2ccccc2C(=O)c2ccc(F)cc2)s1 [Compound I-8] | 7.48 | 6.00
O=C1NC(=O)/C(=C/c2ccc(S(=O)(=O)NC[C@@H]3C[C@@H](OCc4ccccc4-c4ccccc4)CN3C(=O)c3ccccc3C(=O)c3ccc(F)cc3)s2)S1 [Compound A-60] | 5.89 | 5.89
CN(C(c1ccccc1)c1ccccc1)[C@@H]1C[C@@H](CNC(=O)c2ccc(/C=C3\SC(=O)NC3=O)cc2)N(C(=O)c2ccccc2C(=O)c2ccc(F)cc2)C1 [Compound M-12] | 7.03 | 6.64
